From US20230131339A1, “EPI-X4 BASED PEPTIDES AND DERIVATIVES THEREOF” (Universitaet Ulm, priority 2020, published 2023)

Columns and labels:
[1] = test system: CXCR4 12G5 epitope of WM cells; assay: Blocking of the CXCR4 12G5 epitope of WM cells; assay type: binding; settings: with or without CXCR4 mutations
Source text: (§1) Experimental data support the efficiency of the claimed peptide derivatives against the diseases mentioned above. At the example of JM #21 (SEQ ID NO.: 23) it could be shown that the peptides counteract growth and migration in vitro and in vivo of Acute Myeloid Leukemia (AML) cells as well as primary patient material and Waldenström's Macroglobulinemia (WM) cells harboring different WHIM-like CXCR4 mutations. This was accompanied by intrinsic changes suppressing oncogenic MAP kinase signaling of AML and WM cells.

[2] = Functional stability assay in human plasma; settings: human plasma, 2 hours
How it was run: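 EPI-X4 derivatives at 20 μM final in pooled human plasma or whole blood (EDTA), incubated at 37 °C with shaking for 2 or 8 h. Residual activity was measured by 12G5-APC antibody competition on CXCR4 and compared with a non-incubated t=0 sample. Blood samples were centrifuged to remove cells before the competition assay.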

CD34+ normal cells = assay: Engraftment of CD34+ normal cells; settings: in vivo
Source text: as §1

With `CC[C@H](C)[C@H](N)C(=O)N[C@@H](CC(C)C)C(=O)N[C@@H](CCCNC(=N)N)C(=O)N[C@@H](Cc1c[nH]c2ccccc12)C(=O)N[C@@H](CO)C(=O)N[C@@H](CCCNC(=N)N)C(=O)N[C@@H](CCCCN)C(=O)N[C@@H](CC(C)C)C(=O)N1CCC[C@H]1C(=O)N[C@@H](CS)C(=O)N[C@H](C(=O)N[C@@H](CO)C(=O)O)C(C)C` [JM #21] the “blocking of CXCR4 12G5 epitope of WM cells” value [1] was “blocked the CXCR4 12G5 epitope of WM cells in presence or absence of different CXCR4 mutations in a dose dependent manner”, the “remaining (relative) activity after 2 hours of plasma incubation” value [2] was “completely inactive” and the “engraftment potential of CD34+ normal cells” value (CD34+ normal cells) was “no inhibiting effect on the engraftment potential of CD34+ normal cells”.
